Patent publication US6914045B2, “Glycopeptide antibiotics” (Wyeth Holdings Corporation, priority 2001, dated 2005)
In brackets after ≈: the same amount, converted by molar mass. Numbered stars: 1 amine (or outer) side, 2 acyl side, 3 side chain; on linkers, the order of the positions; unused ones are H or OH. Square brackets hold non-standard residues; d marks the D form. Peptide text beside a SMILES is read from it. ξ: configuration not given here. X1 = N=C1NCC(C(O)C(N[*:1])C(=O)[*:2])N1C1OC(CO)C(O)C(O)C1O; ξEnduracididine(βξ-OH,4'ξ) = N=C1NCC(C(O)C(N)C(=O)O)N1; Cha = N[CH](CC1CCCCC1)C(=O)O

Legend:
[1] = test system: Enterococcus sp.; assay: in vitro antibacterial evaluation, MIC by broth dilution; assay type: cell-based; conditions: broth dilution, 18 hours at 35° C.
Procedure, shortened: (§1)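 Broth dilution per NCCLS M7-A2 in Mueller-Hinton II medium, inoculum 5×10^5 CFU/mL, antibiotic range 64-0.06 μg/mL. MIC taken as lowest concentration inhibiting growth; Gram-positive panel includes recent clinical isolates resistant to methicillin, penicillin and/or vancomycin.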

[2] = test system: Escherichia coli; assay: as above; assay type: cell-based
Procedure, shortened: as §1

[3] = test system: Staphylococcus sp.; assay: as above; assay type: cell-based
Procedure, shortened: as §1

[4] = test system: Streptococcus sp.; assay: as above; assay type: cell-based; conditions: broth dilution, 18 hours at 35° C.
Procedure, shortened: as §1

[5] = clinical pathology (serum clinical chemistry) in mice; assay type: in vivo; conditions: CD-1 mice, 20 mg/kg intravenously daily for 9 days, sera day 10
Method: 20-day-old CD-1 mice were divided into a vehicle control group (5 mice) and a treatment group (5 mice). Samples of glycopeptide antibiotics were administered at 20 mg/kg intravenously daily for 9 days.

[6] = anatomic pathology (histopathology of heart and kidney) in mice; assay type: in vivo; conditions: CD-1 mice, 20 mg/kg intravenously daily for 9 days, necropsy day 10, microscopic histopathology
Method: Samples of tissues from necropsied mice were formalin-fixed, paraffin-embedded, sectioned, stained with hematoxylin and eosin, and examined microscopically. Histopathologic findings were recorded. These findings were subjectively graded on a scale corresponding to slight, mild, moderate, marked and severe as compared to untreated controls.

[7] = test system: Escherichia coli; assay: in vitro antibacterial evaluation, MIC by broth dilution; assay type: cell-based; conditions: broth dilution, 18 hours at 35° C.
Procedure, shortened: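 Broth dilution MIC per NCCLS M7-A2 in Mueller-Hinton II medium, inoculum 5×10^5 CFU/mL, antibiotic range 64-0.06 μg/mL. MIC taken as lowest concentration inhibiting growth.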

CC(c1ccccc1)C1NC(=O)CNC(=O)C(CO)NC(=O)C(C(O)C2CNC(=N)N2C2OC(CO)C(O)C(O)C2O)NC(=O)C(C(O)C2CNC(=N)N2)NC(=O)C(Cc2ccc(OC3OC(CO)C(OC4OC5COC(c6ccc(C(=O)O)cc6)OC5C(O)C4O)C(O)C3O)cc2)NC1=O (stereo not drawn) [Example 141, Cyclo[glycyl-β-methylphenylalanyl-O-[4-O-[4,6-O-(4-carboxybenzylidene)hexopyranosyl]-hexopyranosyl]tyrosyl-3-(2-iminoimidazolidin-4-yl)seryl-3-(3-hexopyranosyl-2-iminoimidazolidin-4-yl)serylseryl]]
MIC Enterococcus avium (GC 4558) ([1]; Enterococcus avium (GC 4558)): >64 mg/L
MIC Enterococcus faecalis (ATCC 29212) ([1]; Enterococcus faecalis (ATCC 29212)): >64 mg/L
MIC Enterococcus faecalis (GC 2242) ([1]; Enterococcus faecalis (GC 2242)): >64 mg/L
MIC Enterococcus faecalis (GC 2691) ([1]; Enterococcus faecalis (GC 2691)): >64 mg/L
MIC Enterococcus faecalis (GC 3059) ([1]; Enterococcus faecalis (GC 3059)): >64 mg/L
MIC Enterococcus faecalis (GC 4552) ([1]; Enterococcus faecalis (GC 4552)): >64 mg/L
MIC Enterococcus faecalis (GC 4553) ([1]; Enterococcus faecalis (GC 4553)): >64 mg/L
MIC Enterococcus faecalis (GC 4554) ([1]; Enterococcus faecalis (GC 4554)): >64 mg/L
MIC Enterococcus faecalis (GC 6189) ([1]; Enterococcus faecalis (GC 6189)): >64 mg/L
MIC Enterococcus faecium (GC 2243) ([1]; Enterococcus faecium (GC 2243)): >64 mg/L
MIC Enterococcus faecium (GC 4556) ([1]; Enterococcus faecium (GC 4556)): >64 mg/L
MIC Enterococcus faecium (GC 4557) ([1]; Enterococcus faecium (GC 4557)): 64 mg/L (≈ 44.8 µM)
MIC Enterococcus faecalis (ATCC 29212) ([1]; strain ATCC 29212): >64 mg/L
MIC Enterococcus faecalis (GC 2242) ([1]; strain GC 2242): >64 mg/L
MIC Enterococcus faecium (GC 2243) ([1]; strain GC 2243): >64 mg/L
MIC Enterococcus faecalis (GC 2691) ([1]; strain GC 2691): >64 mg/L
MIC Enterococcus faecalis (GC 3059) ([1]; strain GC 3059): >64 mg/L
MIC Enterococcus faecalis (GC 4552) ([1]; strain GC 4552): >64 mg/L
MIC Enterococcus faecalis (GC 4553) ([1]; strain GC 4553): >64 mg/L
MIC Enterococcus faecalis (GC 4554) ([1]; strain GC 4554): >64 mg/L
MIC Enterococcus faecium (GC 4556) ([1]; strain GC 4556): >64 mg/L
MIC Enterococcus faecium (GC 4557) ([1]; strain GC 4557): 64 mg/L (≈ 44.8 µM)
MIC Enterococcus avium (GC 4558) ([1]; strain GC 4558): >64 mg/L
MIC Enterococcus faecalis (GC 6189) ([1]; strain GC 6189): >64 mg/L
MIC Escherichia coli (ATCC 25922) ([2]; strain ATCC 25922, 18 hours at 35° C.): >64 mg/L
MIC Escherichia coli (GC 4559) ([2]; strain GC 4559, 18 hours at 35° C.): >64 mg/L
MIC Escherichia coli (GC 4560) ([2]; strain GC 4560, 18 hours at 35° C.): >64 mg/L
MIC Staphylococcus aureus (GC 1131) ([3]; broth dilution, 18 hours at 35° C., inoculum 5×10^5 CFU/mL; strain GC 1131): >64 mg/L
MIC Staphylococcus aureus (ATCC 29213) ([3]; broth dilution, 18 hours at 35° C.; strain ATCC 29213): >64 mg/L
MIC Staphylococcus aureus (GC 1131) ([3]; broth dilution, 18 hours at 35° C.; strain GC 1131): >64 mg/L
MIC Staphylococcus aureus (GC 3051) ([3]; broth dilution, 18 hours at 35° C.; strain GC 3051): >64 mg/L
MIC Staphylococcus aureus (GC 3053) ([3]; broth dilution, 18 hours at 35° C.; strain GC 3053): >64 mg/L
MIC Staphylococcus aureus (GC 4541) ([3]; broth dilution, 18 hours at 35° C.; strain GC 4541): >64 mg/L
MIC Staphylococcus aureus (GC 4542) ([3]; broth dilution, 18 hours at 35° C.; strain GC 4542): >64 mg/L
MIC Staphylococcus aureus-SMITH (GC 4543) ([3]; broth dilution, 18 hours at 35° C.; strain GC 4543): >64 mg/L
MIC Staphylococcus aureus (GC 4544) ([3]; broth dilution, 18 hours at 35° C.; strain GC 4544): >64 mg/L
MIC Staphylococcus aureus (GC 4545) ([3]; broth dilution, 18 hours at 35° C.; strain GC 4545): >64 mg/L
MIC Staphylococcus haemolyticus (GC 4546) ([3]; broth dilution, 18 hours at 35° C.; strain GC 4546): >64 mg/L
MIC Coagulase Negative Staphylococcus (GC 4547) ([3]; broth dilution, 18 hours at 35° C.; strain GC 4547): >64 mg/L
MIC Coagulase Negative Staphylococcus (GC 4548) ([3]; broth dilution, 18 hours at 35° C.; strain GC 4548): >64 mg/L
MIC Coagulase Negative Staphylococcus (GC 4549) ([3]; broth dilution, 18 hours at 35° C.; strain GC 4549): >64 mg/L
MIC Coagulase Negative Staphylococcus (GC 4551) ([3]; broth dilution, 18 hours at 35° C.; strain GC 4551): >64 mg/L
MIC Coagulase Negative Staphylococcus (GC 6257) ([3]; broth dilution, 18 hours at 35° C.; strain GC 6257): >64 mg/L
MIC Staphylococcus aureus-SMITH (GC 4543) ([3]; broth dilution, 18 hours at 35° C.; strain SMITH GC 4543): >64 mg/L
MIC Streptococcus agalactiae (GC 4564) ([4]; Streptococcus agalactiae (GC 4564)): >64 mg/L
MIC Streptococcus pneumoniae (ATCC 6301) ([4]; Streptococcus pneumoniae (ATCC 6301)): >64 mg/L
MIC Streptococcus pneumoniae (GC 1894) ([4]; Streptococcus pneumoniae (GC 1894)): >64 mg/L
MIC Streptococcus pneumoniae (GC 4565) ([4]; Streptococcus pneumoniae (GC 4565)): >64 mg/L
MIC Streptococcus pyogenes (GC 4563) ([4]; Streptococcus pyogenes (GC 4563)): >64 mg/L
MIC Streptococcus pneumoniae (ATCC 6301) ([4]; strain ATCC 6301): >64 mg/L
MIC Streptococcus pneumoniae (GC 1894) ([4]; strain GC 1894): >64 mg/L
MIC Streptococcus pyogenes (GC 4563) ([4]; strain GC 4563): >64 mg/L
MIC Streptococcus agalactiae (GC 4564) ([4]; strain GC 4564): >64 mg/L
MIC Streptococcus pneumoniae (GC 4565) ([4]; strain GC 4565): >64 mg/L
Clinical Chemistry (Day 10) % of Control, BUN [5]: +308%
Clinical Chemistry (Day 10) % of Control, Creatinine [5]: +113%
Anatomical Pathology (Day 10), Heart [6]: 0
Anatomical Pathology (Day 10), Kidney [6]: +++

N=C1NCC(C(O)C2NC(=O)C(CC3CCCCC3)NC(=O)C(CC3CCCCC3)NC(=O)CNC(=O)C(CO)NC(=O)C(C(O)C3CNC(=N)N3C3OC(CO)C(O)C(O)C3O)NC2=O)N1 (stereo not drawn) [Example 52, Cyclo[3-cyclohexylalanyl-3-cyclohexylalanyl-3-(2-iminoimidazolidin-4-yl)seryl-3-(3-hexopyranosyl-2-iminoimidazolidin-4-yl)serylserylglycyl]] (cyclo(G[Cha][Cha][ξEnduracididine(βξ-OH,4'ξ)][X1]S); configuration not given here)
MIC Enterococcus faecalis (ATCC 29212) ([1]; strain ATCC 29212): 64 mg/L (≈ 67.2 µM)
MIC Enterococcus faecalis (GC 2242) ([1]; strain GC 2242): 32 mg/L (≈ 33.6 µM)
MIC Enterococcus faecium (GC 2243) ([1]; strain GC 2243): 16 mg/L (≈ 16.8 µM)
MIC Enterococcus faecalis (GC 2691) ([1]; strain GC 2691): 32 mg/L (≈ 33.6 µM)
MIC Enterococcus faecalis (GC 3059) ([1]; strain GC 3059): 32 mg/L (≈ 33.6 µM)
MIC Enterococcus faecalis (GC 4552) ([1]; strain GC 4552): 32 mg/L (≈ 33.6 µM)
MIC Enterococcus faecalis (GC 4553) ([1]; strain GC 4553): 16 mg/L (≈ 16.8 µM)
MIC Enterococcus faecalis (GC 4554) ([1]; strain GC 4554): 64 mg/L (≈ 67.2 µM)
MIC Enterococcus faecium (GC 4556) ([1]; strain GC 4556): 32 mg/L (≈ 33.6 µM)
MIC Enterococcus faecium (GC 4557) ([1]; strain GC 4557): 8 mg/L (≈ 8.39 µM)
MIC Enterococcus avium (GC 4558) ([1]; strain GC 4558): 32 mg/L (≈ 33.6 µM)
MIC Enterococcus faecalis (GC 6189) ([1]; strain GC 6189): 32 mg/L (≈ 33.6 µM)
MIC Staphylococcus aureus (ATCC 29213) ([3]; strain ATCC 29213; broth dilution, 18 hours at 35° C.): 16 mg/L (≈ 16.8 µM)
MIC Staphylococcus aureus (GC 1131) ([3]; strain GC 1131; broth dilution, 18 hours at 35° C.): 16 mg/L (≈ 16.8 µM)
MIC Staphylococcus aureus (GC 3051) ([3]; strain GC 3051; broth dilution, 18 hours at 35° C.): 16 mg/L (≈ 16.8 µM)
MIC Staphylococcus aureus (GC 3053) ([3]; strain GC 3053; broth dilution, 18 hours at 35° C.): 32 mg/L (≈ 33.6 µM)
MIC Staphylococcus aureus (GC 4541) ([3]; strain GC 4541; broth dilution, 18 hours at 35° C.): 16 mg/L (≈ 16.8 µM)
MIC Staphylococcus aureus (GC 4542) ([3]; strain GC 4542; broth dilution, 18 hours at 35° C.): 8 mg/L (≈ 8.39 µM)
MIC Staphylococcus aureus-SMITH (GC 4543) ([3]; strain GC 4543; broth dilution, 18 hours at 35° C.): 16 mg/L (≈ 16.8 µM)
MIC Staphylococcus aureus (GC 4544) ([3]; strain GC 4544; broth dilution, 18 hours at 35° C.): 16 mg/L (≈ 16.8 µM)
MIC Staphylococcus aureus (GC 4545) ([3]; strain GC 4545; broth dilution, 18 hours at 35° C.): 8 mg/L (≈ 8.39 µM)
MIC Staphylococcus haemolyticus (GC 4546) ([3]; strain GC 4546; broth dilution, 18 hours at 35° C.): 4 mg/L (≈ 4.2 µM)
MIC Coagulase Negative Staphylococcus (GC 4547) ([3]; strain GC 4547; broth dilution, 18 hours at 35° C.): 8 mg/L (≈ 8.39 µM)
MIC Coagulase Negative Staphylococcus (GC 4548) ([3]; strain GC 4548; broth dilution, 18 hours at 35° C.): 8 mg/L (≈ 8.39 µM)
MIC Coagulase Negative Staphylococcus (GC 4549) ([3]; strain GC 4549; broth dilution, 18 hours at 35° C.): 4 mg/L (≈ 4.2 µM)
MIC Coagulase Negative Staphylococcus (GC 4551) ([3]; strain GC 4551; broth dilution, 18 hours at 35° C.): 8 mg/L (≈ 8.39 µM)
MIC Streptococcus pneumoniae (ATCC 6301) ([4]; strain ATCC 6301): 8 mg/L (≈ 8.39 µM)
MIC Streptococcus pneumoniae (GC 1894) ([4]; strain GC 1894): 8 mg/L (≈ 8.39 µM)
MIC Streptococcus pyogenes (GC 4563) ([4]; strain GC 4563): 8 mg/L (≈ 8.39 µM)
MIC Streptococcus agalactiae (GC 4564) ([4]; strain GC 4564): 8 mg/L (≈ 8.39 µM)
MIC Streptococcus pneumoniae (GC 4565) ([4]; strain GC 4565): 16 mg/L (≈ 16.8 µM)
Clinical Chemistry (Day 10) % of Control, BUN [5]: 211%
Anatomical Pathology (Day 10), Heart [6]: 0
Anatomical Pathology (Day 10), Kidney [6]: +++
MIC Escherichia coli (ATCC 25922) ([7]; strain ATCC 25922): 64 mg/L (≈ 67.2 µM)
MIC Escherichia coli (GC 4559) ([7]; strain GC 4559): 64 mg/L (≈ 67.2 µM)
MIC Escherichia coli (GC 4560) ([7]; strain GC 4560): 16 mg/L (≈ 16.8 µM)
